According to PubChem BioAssay (NCI):
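Test compounds were applied to cells in 96-well plates for 48 hours at 5 doses. GI50 = concentration required for 50% inhibition of growth. TGI: total growth inhibition.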

How the values were obtained:
Assay in all cases: NCI tumour cell line growth inhibition, 48 h
[1] = tested on: HOP-62 NSCLC
[2] = tested on: SF-539 CNS
[3] = tested on: IGROV1 ovarian
[4] = tested on: NCI-H226 lung
[5] = tested on: MALME-3M melanoma
[6] = tested on: OVCAR-4 ovarian
[7] = tested on: MDA-MB-231 breast
[8] = tested on: NCI-H522 lung
[9] = tested on: ACHN renal
[10] = tested on: HOP-92 NSCLC

Row | Compound | TGI [1] [µM] | TGI [2] [µM] | TGI [3] [µM] | TGI [4] [µM] | TGI [5] [µM] | TGI [6] [µM] | TGI [7] [µM] | TGI [8] [µM] | TGI [9] [µM] | TGI [10] [µM] | GI50 [2] [µM] | GI50 [3] [µM] | GI50 [4] [µM] | GI50 [5] [µM] | GI50 [6] [µM] | GI50 [7] [µM] | GI50 [8] [µM] | GI50 [9] [µM] | GI50 [10] [µM] | GI50 [1] [µM]
1 | N/C(=N\S(=O)(=O)c1cccc2nsnc12)Nc1ccc(Cl)cc1 | > 100 | > 100 | > 100 | > 100 | 40.2 | > 100 | 75.9 | 25.7 | > 100 | 56.5 | – | – | – | – | – | – | – | – | – | –
2 | CC(C)CCC[C@@H](C)[C@H]1CC[C@H]2[C@@H]3CC[C@H]4C[C@H](N)CC[C@]4(C)[C@H]3CC[C@]12C | 70.7 | – | 54.3 | 49.2 | 38.7 | 65.4 | 8.22 | 99.7 | 36.2 | 34.6 | – | – | – | – | – | – | – | – | – | –
3 | O=C1N(c2ccccc2)C2(c3ccccc3)CC3CCCC13S2 (stereo unspecified) | > 100 | > 100 | > 100 | > 100 | > 100 | > 100 | > 100 | 75.7 | > 100 | > 100 | – | – | – | – | – | – | – | – | – | –
4 | C=CCc1cc(-c2cc(CC=C)c(O)c(CNC)c2)cc(CNC)c1O | 33.4 | – | 32.7 | 31 | 33.6 | 30.4 | – | 28.3 | 31.7 | 23.3 | – | – | – | – | – | – | – | – | – | –
5 | N#CC(c1nc2ccccc2s1)c1ncnc(Cl)c1[N+](=O)[O-] (stereo unspecified) | 97.2 | 61.3 | 30.5 | 83.3 | 41.8 | > 100 | 92.1 | 33.5 | > 100 | 42.8 | – | – | – | – | – | – | – | – | – | –
6 | O=S1(=O)C(c2ccccc2)C(N2CCCCC2)C1C1CC2c3ccccc3C1c1ccccc12 (stereo unspecified) | > 100 | > 100 | > 100 | > 100 | > 100 | > 100 | > 100 | > 100 | > 100 | > 100 | – | – | – | – | – | – | – | – | – | –
7 | COc1cc(/C=N/n2c(Cc3ccc(Cl)cc3)n[nH]c2=O)cc(OC)c1OC | > 100 | > 100 | – | > 100 | > 100 | > 100 | > 100 | – | > 100 | – | – | – | – | – | – | – | – | – | – | –
8 | CC(=O)Nc1ccc(N=C2C(c3ccccc3)=C(SC3=C(c4ccccc4)C(=Nc4ccc(NC(C)=O)cc4)c4ccccc43)c3ccccc32)cc1 | > 100 | 28.5 | > 100 | > 100 | > 100 | > 100 | > 100 | 97.7 | > 100 | > 100 | – | – | – | – | – | – | – | – | – | –
9 | O=C1CS(=O)(=O)C(c2cccc(Oc3ccccc3)c2)N1c1cccc(Cl)c1 (stereo unspecified) | > 100 | 37.4 | 69.9 | > 100 | 52.6 | > 100 | > 100 | 45.2 | 59.5 | 40.5 | – | – | – | – | – | – | – | – | – | –
10 | O=c1cc(-c2ccc(O)cc2)n(C2CC2)c2ccccc12 | 21.3 | 18.9 | > 100 | 16.4 | – | – | 22.2 | 9.69 | 5.99 | 19.8 | – | – | – | – | – | – | – | – | – | –
11 | CCN1C=C/C(=C\C=C/c2cc[n+](CC)c3ccccc23)c2ccccc21 | 8.18 | 9.08 | 12.4 | 16 | 30.5 | 16.9 | 9.32 | 23.1 | 33.8 | 37.5 | – | – | – | – | – | – | – | – | – | –
12 | c1ccc(C2CC(c3cccc(Nc4ccncc4)c3)=NN2c2ccccc2)cc1 (stereo unspecified) | – | 3.12 | 3.18 | 28.7 | 3.02 | 3.43 | 3 | 3.28 | 3.05 | 2.95 | 1.71 | 1.68 | 8.39 | 1.57 | 1.72 | 1.61 | 1.62 | 1.69 | 1.45 | –
13 | Cc1ccc(NP(=O)(Oc2ccccc2)N(CCCl)CCCl)cc1 (stereo unspecified) | > 100 | > 100 | > 100 | > 100 | > 100 | > 100 | – | > 100 | > 100 | > 100 | – | – | – | – | – | – | – | – | – | –
14 | O=C(C[C@H](NC(=O)OCc1ccccc1)C(=O)NC1Cc2ccccc2OC1=O)OCc1ccccc1 (stereo partly specified) | > 100 | – | > 100 | > 100 | > 100 | – | 71.6 | > 100 | – | > 100 | – | – | – | – | – | – | – | – | – | –
15 | CCCCCCCCCCCCCCCc1ccc(OCC(O)CO)cc1 (stereo unspecified) | > 100 | > 100 | > 100 | 58.5 | 46.8 | 40.8 | – | 35.4 | > 100 | 47.8 | – | – | – | – | – | – | – | – | – | –
16 | Cn1c(-c2cccs2)cc(-c2ccccc2)c1-c1cccs1 | 51.5 | > 100 | > 100 | > 100 | – | > 100 | > 100 | > 100 | > 100 | > 100 | – | – | – | – | – | – | – | – | – | –
17 | Nc1cc2c(nnn2C2OC(COCc3ccccc3)C(OCc3ccccc3)C2OCc2ccccc2)c(=O)[nH]1 (stereo unspecified) | > 100 | 69.5 | > 100 | 53.7 | > 100 | > 100 | > 100 | > 100 | > 100 | > 100 | – | – | – | – | – | – | – | – | – | –
18 | CN(C)c1nc(N(C)C)nc(N(C)CN(C)c2ccc(Cl)cc2)n1 | – | > 100 | > 100 | > 100 | > 100 | > 100 | – | > 100 | > 100 | – | – | – | – | – | – | – | – | – | – | –
19 | CN(c1cc2ncc(=O)[nH]c2cc1NC(N)=NCc1ccc(Cl)cc1)C1CCCCC1 | 19.6 | 14.6 | 15 | 18 | 17.5 | 17.2 | 9.04 | 16.1 | 14.2 | 5.95 | 7.68 | 6.93 | 8.1 | 8.5 | 6.21 | 2.46 | 7.39 | 7.12 | 0.793 | 8.84
